± gives the expanded uncertainty stated by the source.
Assay: activity coefficient (dimensionless); of the first substance listed, at infinite dilution; xn = mol fraction of the nth substance listed
Details: Liquid, Chromatography, x1 = 0

Row | SMILES | activity coefficient (308.15 K) | activity coefficient (318.15 K) | activity coefficient (328.15 K)
1 | CCCCCC [hexane] + CCCCCCCCCCCCCC[P+](CCCCCC)(CCCCCC)CCCCCC.F[B-](F)(F)F | 0.968 ± 0.061 | 0.942 ± 0.059 | 0.925 ± 0.058
2 | CCCCCCC [heptane] + CCCCCCCCCCCCCC[P+](CCCCCC)(CCCCCC)CCCCCC.[Cl-] | 0.816 ± 0.053 | 0.803 ± 0.052 | 0.795 ± 0.052
3 | C1CCCCCC1 [cycloheptane] + CCCCCCCCCCCCCC[P+](CCCCCC)(CCCCCC)CCCCCC.F[B-](F)(F)F | 1 ± 0.063 | 0.979 ± 0.061 | 0.965 ± 0.061
4 | CCCCCCCC [octane] + CCCCCCCCCCCCCC[P+](CCCCCC)(CCCCCC)CCCCCC.F[B-](F)(F)F | 1.15 ± 0.073 | 1.11 ± 0.071 | 1.09 ± 0.069
5 | C=CCCCCC [1-heptene] + CCCCCCCCCCCCCC[P+](CCCCCC)(CCCCCC)CCCCCC.O=S(=O)([N-]S(=O)(=O)C(F)(F)F)C(F)(F)F | 0.558 ± 0.04 | 0.549 ± 0.04 | 0.543 ± 0.04
6 | CCCCC [pentane] + CCCCCCCCCCCCCC[P+](CCCCCC)(CCCCCC)CCCCCC.F[B-](F)(F)F | 0.722 ± 0.048 | 0.706 ± 0.047 | 0.695 ± 0.047
7 | C=CCCCCCC [oct-1-ene] + CCCCCCCCCCCCCC[P+](CCCCCC)(CCCCCC)CCCCCC.[Cl-] | 0.567 ± 0.041 | 0.557 ± 0.04 | 0.552 ± 0.04
8 | C1CCCCCC1 [cycloheptane] + CCCCCCCCCCCCCC[P+](CCCCCC)(CCCCCC)CCCCCC.[Cl-] | 0.861 ± 0.055 | 0.753 ± 0.05 | 0.763 ± 0.05
9 | CCO [ethanol] + CCCCCCCCCCCCCC[P+](CCCCCC)(CCCCCC)CCCCCC.F[B-](F)(F)F | 5.59 ± 0.38 | 5.36 ± 0.36 | 5.14 ± 0.35
10 | CCCCCCCC [octane] + CCCCCCCCCCCCCC[P+](CCCCCC)(CCCCCC)CCCCCC.[Cl-] | 0.847 ± 0.054 | 0.831 ± 0.054 | 0.821 ± 0.053
11 | c1ccccc1 [benzene] + CCCCCCCCCCCCCC[P+](CCCCCC)(CCCCCC)CCCCCC.O=S(=O)([N-]S(=O)(=O)C(F)(F)F)C(F)(F)F | 0.406 ± 0.034 | 0.403 ± 0.034 | 0.402 ± 0.034
12 | CCCCC [pentane] + CCCCCCCCCCCCCC[P+](CCCCCC)(CCCCCC)CCCCCC.[Cl-] | 0.607 ± 0.042 | 0.599 ± 0.042 | 0.594 ± 0.042
13 | C#CCCCC [1-hexyne] + CCCCCCCCCCCCCC[P+](CCCCCC)(CCCCCC)CCCCCC.F[B-](F)(F)F | 0.345 ± 0.032 | 0.358 ± 0.033 | 0.366 ± 0.033
14 | C1CCCC1 [cyclopentane] + CCCCCCCCCCCCCC[P+](CCCCCC)(CCCCCC)CCCCCC.O=S(=O)([N-]S(=O)(=O)C(F)(F)F)C(F)(F)F | 0.562 ± 0.04 | 0.559 ± 0.04 | 0.558 ± 0.04
15 | C1CCCC1 [cyclopentane] + CCCCCCCCCCCCCC[P+](CCCCCC)(CCCCCC)CCCCCC.F[B-](F)(F)F | 0.638 ± 0.044 | 0.63 ± 0.044 | 0.625 ± 0.043
16 | C1CCCCC1 [cyclohexane] + CCCCCCCCCCCCCC[P+](CCCCCC)(CCCCCC)CCCCCC.[Cl-] | 0.631 ± 0.044 | 0.627 ± 0.043 | 0.625 ± 0.043
17 | C#CCCCCC [1-heptyne] + CCCCCCCCCCCCCC[P+](CCCCCC)(CCCCCC)CCCCCC.F[B-](F)(F)F | 0.374 ± 0.033 | 0.389 ± 0.034 | 0.399 ± 0.034
18 | CCCCCC [hexane] + CCCCCCCCCCCCCC[P+](CCCCCC)(CCCCCC)CCCCCC.[Cl-] | 0.766 ± 0.05 | 0.753 ± 0.05 | 0.746 ± 0.049
19 | CCO [ethanol] + CCCCCCCCCCCCCC[P+](CCCCCC)(CCCCCC)CCCCCC.[Cl-] | 0.74 ± 0.049 | 0.737 ± 0.049 | 0.735 ± 0.049
20 | C#CCCCCC [1-heptyne] + CCCCCCCCCCCCCC[P+](CCCCCC)(CCCCCC)CCCCCC.O=S(=O)([N-]S(=O)(=O)C(F)(F)F)C(F)(F)F | 0.485 ± 0.037 | 0.496 ± 0.038 | 0.502 ± 0.038
21 | C1CCCC1 [cyclopentane] + CCCCCCCCCCCCCC[P+](CCCCCC)(CCCCCC)CCCCCC.[Cl-] | 0.579 ± 0.041 | 0.576 ± 0.041 | 0.574 ± 0.041
22 | C=CCCCC [hex-1-ene] + CCCCCCCCCCCCCC[P+](CCCCCC)(CCCCCC)CCCCCC.F[B-](F)(F)F | 0.57 ± 0.041 | 0.558 ± 0.04 | 0.551 ± 0.04
23 | CO [methanol] + CCCCCCCCCCCCCC[P+](CCCCCC)(CCCCCC)CCCCCC.[Cl-] | 0.887 ± 0.056 | 0.879 ± 0.056 | 0.873 ± 0.056
24 | CCO [ethanol] + CCCCCCCCCCCCCC[P+](CCCCCC)(CCCCCC)CCCCCC.O=S(=O)([N-]S(=O)(=O)C(F)(F)F)C(F)(F)F | 0.884 ± 0.056 | 0.894 ± 0.057 | 0.902 ± 0.057

Row | SMILES | activity coefficient (308.15 K) | activity coefficient (318.15 K) | activity coefficient (328.15 K)
25 | CO [methanol] + CCCCCCCCCCCCCC[P+](CCCCCC)(CCCCCC)CCCCCC.O=S(=O)([N-]S(=O)(=O)C(F)(F)F)C(F)(F)F | 0.942 ± 0.059 | 0.958 ± 0.06 | 0.989 ± 0.062
26 | C1CCCCCC1 [cycloheptane] + CCCCCCCCCCCCCC[P+](CCCCCC)(CCCCCC)CCCCCC.O=S(=O)([N-]S(=O)(=O)C(F)(F)F)C(F)(F)F | 0.787 ± 0.051 | 0.779 ± 0.051 | 0.774 ± 0.051
27 | CCCCCC [hexane] + CCCCCCCCCCCCCC[P+](CCCCCC)(CCCCCC)CCCCCC.O=S(=O)([N-]S(=O)(=O)C(F)(F)F)C(F)(F)F | 0.766 ± 0.05 | 0.751 ± 0.049 | 0.742 ± 0.049
28 | C=CCCCCCC [oct-1-ene] + CCCCCCCCCCCCCC[P+](CCCCCC)(CCCCCC)CCCCCC.F[B-](F)(F)F | 0.769 ± 0.05 | 0.748 ± 0.049 | 0.734 ± 0.049
29 | C1CCCCC1 [cyclohexane] + CCCCCCCCCCCCCC[P+](CCCCCC)(CCCCCC)CCCCCC.F[B-](F)(F)F | 0.73 ± 0.048 | 0.719 ± 0.048 | 0.712 ± 0.047
30 | C#CCCCC [1-hexyne] + CCCCCCCCCCCCCC[P+](CCCCCC)(CCCCCC)CCCCCC.O=S(=O)([N-]S(=O)(=O)C(F)(F)F)C(F)(F)F | 0.454 ± 0.036 | 0.463 ± 0.036 | 0.468 ± 0.037
31 | C#CCCCCC [1-heptyne] + CCCCCCCCCCCCCC[P+](CCCCCC)(CCCCCC)CCCCCC.[Cl-] | 0.479 ± 0.037 | 0.494 ± 0.038 | 0.504 ± 0.038
32 | C=CCCCC [hex-1-ene] + CCCCCCCCCCCCCC[P+](CCCCCC)(CCCCCC)CCCCCC.O=S(=O)([N-]S(=O)(=O)C(F)(F)F)C(F)(F)F | 0.501 ± 0.038 | 0.494 ± 0.038 | 0.49 ± 0.037
33 | C#CCCCCCC [1-octyne] + CCCCCCCCCCCCCC[P+](CCCCCC)(CCCCCC)CCCCCC.[Cl-] | 0.494 ± 0.038 | 0.514 ± 0.038 | 0.526 ± 0.039
34 | C=CCCCCCC [oct-1-ene] + CCCCCCCCCCCCCC[P+](CCCCCC)(CCCCCC)CCCCCC.O=S(=O)([N-]S(=O)(=O)C(F)(F)F)C(F)(F)F | 0.617 ± 0.043 | 0.605 ± 0.042 | 0.598 ± 0.042
35 | c1ccccc1 [benzene] + CCCCCCCCCCCCCC[P+](CCCCCC)(CCCCCC)CCCCCC.[Cl-] | 0.408 ± 0.034 | 0.403 ± 0.034 | 0.4 ± 0.034
36 | CCCCCCC [heptane] + CCCCCCCCCCCCCC[P+](CCCCCC)(CCCCCC)CCCCCC.F[B-](F)(F)F | 1 ± 0.063 | 0.97 ± 0.061 | 0.952 ± 0.06
37 | CCCCCCC [heptane] + CCCCCCCCCCCCCC[P+](CCCCCC)(CCCCCC)CCCCCC.O=S(=O)([N-]S(=O)(=O)C(F)(F)F)C(F)(F)F | 0.783 ± 0.051 | 0.769 ± 0.05 | 0.761 ± 0.05
38 | c1ccccc1 [benzene] + CCCCCCCCCCCCCC[P+](CCCCCC)(CCCCCC)CCCCCC.F[B-](F)(F)F | 0.37 ± 0.033 | 0.367 ± 0.033 | 0.366 ± 0.033
39 | C#CCCCCCC [1-octyne] + CCCCCCCCCCCCCC[P+](CCCCCC)(CCCCCC)CCCCCC.F[B-](F)(F)F | 0.387 ± 0.034 | 0.406 ± 0.034 | 0.417 ± 0.035
40 | C#CCCCCCC [1-octyne] + CCCCCCCCCCCCCC[P+](CCCCCC)(CCCCCC)CCCCCC.O=S(=O)([N-]S(=O)(=O)C(F)(F)F)C(F)(F)F | 0.511 ± 0.038 | 0.524 ± 0.039 | 0.532 ± 0.039
41 | CCCCC [pentane] + CCCCCCCCCCCCCC[P+](CCCCCC)(CCCCCC)CCCCCC.O=S(=O)([N-]S(=O)(=O)C(F)(F)F)C(F)(F)F | 0.611 ± 0.043 | 0.602 ± 0.042 | 0.597 ± 0.042
42 | C=CCCCCC [1-heptene] + CCCCCCCCCCCCCC[P+](CCCCCC)(CCCCCC)CCCCCC.F[B-](F)(F)F | 0.663 ± 0.045 | 0.647 ± 0.044 | 0.637 ± 0.044
43 | CO [methanol] + CCCCCCCCCCCCCC[P+](CCCCCC)(CCCCCC)CCCCCC.F[B-](F)(F)F | 6.68 ± 0.46 | 6.38 ± 0.43 | 6.1 ± 0.42
44 | CCCCCCCC [octane] + CCCCCCCCCCCCCC[P+](CCCCCC)(CCCCCC)CCCCCC.O=S(=O)([N-]S(=O)(=O)C(F)(F)F)C(F)(F)F | 0.843 ± 0.054 | 0.825 ± 0.053 | 0.814 ± 0.053
45 | C=CCCCCC [1-heptene] + CCCCCCCCCCCCCC[P+](CCCCCC)(CCCCCC)CCCCCC.[Cl-] | 0.523 ± 0.039 | 0.515 ± 0.038 | 0.511 ± 0.038
46 | C#CCCCC [1-hexyne] + CCCCCCCCCCCCCC[P+](CCCCCC)(CCCCCC)CCCCCC.[Cl-] | 0.449 ± 0.036 | 0.461 ± 0.036 | 0.468 ± 0.037
47 | C1CCCCC1 [cyclohexane] + CCCCCCCCCCCCCC[P+](CCCCCC)(CCCCCC)CCCCCC.O=S(=O)([N-]S(=O)(=O)C(F)(F)F)C(F)(F)F | 0.612 ± 0.043 | 0.609 ± 0.043 | 0.607 ± 0.042

Source: the NIST ThermoML archive (doi:10.1021/je0602925)
